Experiments:
GD2.28z.FKBP CAR T cells [1] = assay: Exhaustion phenotype of GD2.28z.FKBP CAR T cells after S1 removal (FACS); format: cell-based, human
Excerpt: Since tonic signaling is highly dependent upon GD2-CAR receptor levels, precise control of CAR expression levels also precisely regulates levels of tonic signaling. Drug regulated control of levels of CAR expression therefore also allowed modulation of the duration and intensity of GD2.28z tonic signaling. […] This is most well illustrated by measuring levels of PD-1/TIM-3/LAG-3 triple expressing cell which is highly specific for dysfunctional, exhausted T cells. […] Similar results were obtained on day 14 for cells in which S1 was removed from culture medium on day 7 or day 10 (not shown).

[2] = system: HA-GD2.28z.FKBP CAR T cells; assay: Sorted PD-1/TIM-3/LAG-3 triple positive HA-GD2.28z.FKBP CAR T cells re-cultured with or without S1 (FACS, co-culture); format: cell-based, human
Excerpt: Functional studies by several groups, including our lab have verified that co-expression of PD-1, TIM-3, and LAG-3 (triple positive, TP) denotes an exhausted cell subset that is highly dysfunctional. We thus sought to analyze whether cessation of tonic signaling in this cell subset could reverse their phenotype and restore their ability to secrete IL-2 in response to tumor antigen. […] On day 10 post-activation, HA-GD2.28z.FKBP CAR T cells that had experienced continuous S1 treatment were sorted in order to isolate a pure PD-1/TIM-3/LAG-3 exhausted population. “Triple positive” exhausted cells were then re-cultured either with or without S1 to test whether removal of tonic signaling could restore their function. FACS and co-culture assays were conducted 4 days later.

GD2.28z.FKBP CAR T cells [3] = assay: IL-2 secretion of GD2.28z.FKBP CAR T cells in co-culture with Nalm6 cells expressing GD2 (ELISA); format: cell-based, human
Method: Because phenotypic markers may not be entirely predictive of T cell function, we also performed functional experiments on CAR T cells provided transient drug exposure in culture. CAR T cells were washed, resuspended in media containing S1, and mixed at a 1:1 ratio with Nalm6 leukemic cells stably expressing surface GD2. Culture supernatants were harvested approximately 24 hours later and cytokine levels were evaluated via ELISA.
Similar to GD2.28z CAR that lacks a destabilization domain and therefore have persistent high levels of CAR signaling, cells expressing the GD2.28z.FKBP CAR that experienced continuous drug treatment (FIG. 4, grey bars) secreted minimal amounts of IL-2 on both day 10 and day 14 post-activation, consistent with T cell exhaustion.

Her2.28z.FKBP = target: T1, Her2.28z.FKBP (Homo sapiens, UniProt P62942, E32G/F37V/K106E/R72G); assay: Regulation of Her2.28z.FKBP CAR expression by shield-1 (protein L stain, FACS); format: cell-based; conditions: 0.1 uM or 1 uM, 24 hours after addition of drug
T1 construct: expressed in transfected cells; host or cells: T cells, lentiviral transduction
T1 sequence (P62942 2-108 E32G/F37V/R72G/K106E): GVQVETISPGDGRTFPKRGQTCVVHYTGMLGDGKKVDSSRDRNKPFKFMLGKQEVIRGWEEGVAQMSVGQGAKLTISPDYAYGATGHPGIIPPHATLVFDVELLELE
Method: The FKBP12 DD domain was fused to the far c-terminus of the Her2.28z CAR. T cells were transduced with lentivirus to express the Her2.28z.FKBP. […] 24 hours after addition of drug, CAR T cells were stained with protein L and CAR expression was assessed via FACS. Both the percentage of CAR+ cells (quantified in the histograms) as well as CAR MFI are increased upon incubation with either 0.1 uM or 1 uM Shield-1 (S1).

[4] = system: HA-GD2.28z.FKBP CAR T cells; assay: Western blot of CAR CD3-zeta phosphorylation (tonic signaling); format: cell-based, human; conditions: cultured in the absence of S1 (CAR Always OFF)
Excerpt: This phenotype was also reversible, as indicated by the lack of CD3-zeta phosphorylation in DD-CAR T cells that were initially cultured with S1, but then had drug removed on day 7 of the culture (FIG. 16, CAR OFF D7).

HA-GD2.28z.FKBP = assay: Exhaustion marker co-expression on HA-GD2.28z.FKBP CAR T cells; format: cell-based, human; conditions: upon removal of shield-1 from the culture medium
Method: When assessing IL-2 and IFNγ, cells were surface stained, then fixed and permeablized (eBioscience) prior to incubation with intracellular antibodies.
T cells were removed from culture, fixed in 2% PFA for 10 minutes at room temperature, pelleted and frozen at −80C. Upon thawing, each sample was barcoded with a 20-plex Pd harcoding kit (FIuidigm). Cell samples were then pooled and stained for surface marker expression with heavy-metal conjugated antibodies for 30 minutes at room temperature. Cells were then permeablized in methanol and subsequently stained with heavy metal-conjugated anti-human T-bet (4B10, Biolegend) and anti-human Blimp-1 (ROS195G, Biolegend) for 30 minutes at room temperature. Samples were run on a Helios mass cytometer (Fluidigm) and analyses were complete using Cytobank online software.
It was next determined whether the prevention or reversal of tonic signaling in HA-GD2.28z.FKBP-expressing CAR T cells altered their exhaustion phenotype.

GD2.28z.FKBP CAR = target: T2, GD2.28z.FKBP CAR (Homo sapiens, UniProt P62942, E32G/F37V/K106E/R72G); assay: Regulation of GD2.28z.FKBP CAR surface expression by shield-1 (FACS); format: cell-based; conditions: adding or subtracting S1 in culture medium
T2 construct: expressed in transfected cells; host or cells: T cells, lentiviral transduction
T2 sequence (P62942 2-108 E32G/F37V/R72G/K106E): as above
Excerpt: FIG. 1: Characterization of the GD2.28z.FKBP CAR. T cells were transduced with lentivirus encoding the GD2.28z.FKBP CAR on day 1 after activation and subsequently cultured with various concentrations of shield-1 in the growth medium. On day 7, CAR expression was quantified via FACS.

NALM6-GL-GD2 = conditions: mice that received TMP
Method: At day 7 post-engraftment, 1-5×10^6 GD2.28z.DHFR or HA-GD2.28z.DHFR CAR+ T cells were infused intravenously.
Mice were then injected with either stabilizing drug or vehicle control every day thereafter.
To test this, antigen-bearing tumor cells were engrafted into NSG mice and subsequently infused 2-5E6 HA-GD2.28z.DHFR-expressing T cells. Mice were dosed with TMP everyday thereafter.

[5] = S1 removed day 7 or 10, read day 14, vs continuous S1

**Q.** Which results are given for `CC[C@H](C(=O)N1CCCC[C@H]1C(=O)O[C@H](CCc1ccc(OC)c(OC)c1)c1cccc(OCCN2CCOCC2)c1)c1cc(OC)c(OC)c(OC)c1` [shield-1]?
**A.** apoptosis (annexin V staining) (GD2.28z.FKBP CAR T cells [1]; [5]): prevention of apoptosis; memory markers (CD62L) (GD2.28z.FKBP CAR T cells [1]; [5]): maintenance of memory markers; canonical exhaustion marker expression (GD2.28z.FKBP CAR T cells [1]; S1 removed day 7 post-activation, read day 10): reverses canonical exhaustion marker expression to control levels; expression of exhaustion markers ([2]; 4 days without S1, CD4+ and CD8+ CAR T cells): far less expression of exhaustion markers; increase in IL-2 secretion ([2]; removal of S1 vs continuous S1 days 10-14): 2 fold; IL-2 secretion (GD2.28z.FKBP CAR T cells [3]; S1 removed day 7, vs continuous S1): superior IL-2 secretion; IL-2 secretion of exhausted T cells after rest (GD2.28z.FKBP CAR T cells [3]; S1 removed day 10, rested 4 days, day 14 ELISA): reinvigorated; augmentation of IL-2 secretion (GD2.28z.FKBP CAR T cells [3]; cultured without S1, S1 added back just prior to co-culture, vs continuous S1): 5-10 fold; CAR MFI (Her2.28z.FKBP): increased; percentage of CAR+ cells (Her2.28z.FKBP): increased; CD3-zeta phosphorylation [4]: absent; co-expression of canonical exhaustion markers (HA-GD2.28z.FKBP): rapidly downregulated; regulation of CAR surface expression (GD2.28z.FKBP CAR): rapidly and dose-dependently regulated

**Q.** With `COc1cc(Cc2cnc(N)nc2N)cc(OC)c1OC` [trimethoprim] as the compound, how does the “CD69 surface expression of CAR T cells” value (NALM6-GL-GD2) read?
**A.** The value was “higher CD69 surface expression”.

**Q.** “nivolumab: anti-PD-1 checkpoint inhibitor” was tested. Which IL-2 secretion (GD2.28z.FKBP CAR T cells [3]; continuous S1 + nivolumab, day 10, sustained until day 14) did it give?
**A.** Its IL-2 secretion is “only modest augmentation of IL-2 secretion”.

Reference: US11938153B2, “Methods of treating T cell exhaustion by inhibiting or modulating T cell receptor signaling” (THE BOARD OF TRUSTEES OF THE LELAND STANFORD JUNIOR …, priority 2017, dated 2024)
